Test results from paper PMC5513037, “Examining the influence of specificity ligands and ATP-competitive ligands on the overall effectiveness of bivalent kinase inhibitors” (Proteome Science, 2017).
pIC50: −log10 of the molar value.

What was measured:
Assay in all cases: KAM-matrix competition in K562 lysate;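 on 0.001 uM KAM: median log10 fold change of treatment over DMSO control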;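 on 0.01 uM KAM: median log10 fold change of treatment over DMSO control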;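 on 0.1 uM KAM: median log10 fold change of treatment over DMSO control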;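 on 1 uM KAM: median log10 fold change of treatment over DMSO control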;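 on 10 uM KAM: median log10 fold change of treatment over DMSO control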
Format in all cases: binding
HIPK2 = target: T1, HIPK2 (Homo sapiens, UniProt Q9H2X6)
T1 construct: endogenous in cells; host or cells: K562 cell lysate
T1 sequence (Q9H2X6 whole entry): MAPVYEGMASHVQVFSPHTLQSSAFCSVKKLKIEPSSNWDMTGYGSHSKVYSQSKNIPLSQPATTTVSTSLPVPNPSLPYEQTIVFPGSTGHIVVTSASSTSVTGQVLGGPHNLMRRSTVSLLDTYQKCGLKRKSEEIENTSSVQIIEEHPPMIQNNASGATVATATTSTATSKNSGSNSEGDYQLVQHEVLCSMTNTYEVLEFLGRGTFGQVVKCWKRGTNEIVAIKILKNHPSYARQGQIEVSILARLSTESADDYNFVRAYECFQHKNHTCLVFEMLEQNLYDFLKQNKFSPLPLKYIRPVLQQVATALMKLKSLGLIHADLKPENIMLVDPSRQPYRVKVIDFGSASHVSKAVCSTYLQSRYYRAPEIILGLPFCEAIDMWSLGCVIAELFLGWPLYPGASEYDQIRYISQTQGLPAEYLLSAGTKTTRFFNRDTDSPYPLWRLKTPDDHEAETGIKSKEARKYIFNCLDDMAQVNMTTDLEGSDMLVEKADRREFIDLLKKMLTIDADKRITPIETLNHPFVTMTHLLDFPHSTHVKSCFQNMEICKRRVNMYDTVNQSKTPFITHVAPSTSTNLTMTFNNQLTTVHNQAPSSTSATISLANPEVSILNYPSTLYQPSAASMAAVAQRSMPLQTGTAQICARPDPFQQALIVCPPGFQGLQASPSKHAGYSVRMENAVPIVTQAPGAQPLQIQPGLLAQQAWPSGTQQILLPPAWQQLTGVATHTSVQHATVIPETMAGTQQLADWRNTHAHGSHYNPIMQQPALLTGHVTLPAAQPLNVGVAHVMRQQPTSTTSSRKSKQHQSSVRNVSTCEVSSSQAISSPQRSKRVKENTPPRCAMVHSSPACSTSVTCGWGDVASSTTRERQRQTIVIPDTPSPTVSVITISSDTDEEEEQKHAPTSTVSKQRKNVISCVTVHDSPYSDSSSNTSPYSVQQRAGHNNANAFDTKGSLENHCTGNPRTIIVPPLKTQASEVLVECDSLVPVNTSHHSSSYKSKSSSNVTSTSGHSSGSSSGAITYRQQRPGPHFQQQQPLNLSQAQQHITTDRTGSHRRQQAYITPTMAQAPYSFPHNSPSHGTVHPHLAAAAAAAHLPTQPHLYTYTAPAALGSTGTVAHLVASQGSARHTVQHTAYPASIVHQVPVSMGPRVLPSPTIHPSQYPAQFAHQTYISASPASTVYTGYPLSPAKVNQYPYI
Description: (§1) Supplement 12953_2017_125_MOESM1_ESM.zip/MS_Supp Info.xlsx, sheet "KAM" | column: 10 uM KAM; 1 uM KAM; 0.1 uM KAM; 0.01 uM KAM; 0.001 uM KAM; RB50

NPR2 = target: T2, NPR2 (Homo sapiens, UniProt P20594);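 on 0.001 uM KAM: median log10 fold change of treatment over DMSO control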;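 on 0.01 uM KAM: median log10 fold change of treatment over DMSO control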;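 on 0.1 uM KAM: median log10 fold change of treatment over DMSO control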;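 on 1 uM KAM: median log10 fold change of treatment over DMSO control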;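 on 10 uM KAM: median log10 fold change of treatment over DMSO control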
T2 construct: endogenous in cells; host or cells: K562
T2 sequence (P20594 23-1047): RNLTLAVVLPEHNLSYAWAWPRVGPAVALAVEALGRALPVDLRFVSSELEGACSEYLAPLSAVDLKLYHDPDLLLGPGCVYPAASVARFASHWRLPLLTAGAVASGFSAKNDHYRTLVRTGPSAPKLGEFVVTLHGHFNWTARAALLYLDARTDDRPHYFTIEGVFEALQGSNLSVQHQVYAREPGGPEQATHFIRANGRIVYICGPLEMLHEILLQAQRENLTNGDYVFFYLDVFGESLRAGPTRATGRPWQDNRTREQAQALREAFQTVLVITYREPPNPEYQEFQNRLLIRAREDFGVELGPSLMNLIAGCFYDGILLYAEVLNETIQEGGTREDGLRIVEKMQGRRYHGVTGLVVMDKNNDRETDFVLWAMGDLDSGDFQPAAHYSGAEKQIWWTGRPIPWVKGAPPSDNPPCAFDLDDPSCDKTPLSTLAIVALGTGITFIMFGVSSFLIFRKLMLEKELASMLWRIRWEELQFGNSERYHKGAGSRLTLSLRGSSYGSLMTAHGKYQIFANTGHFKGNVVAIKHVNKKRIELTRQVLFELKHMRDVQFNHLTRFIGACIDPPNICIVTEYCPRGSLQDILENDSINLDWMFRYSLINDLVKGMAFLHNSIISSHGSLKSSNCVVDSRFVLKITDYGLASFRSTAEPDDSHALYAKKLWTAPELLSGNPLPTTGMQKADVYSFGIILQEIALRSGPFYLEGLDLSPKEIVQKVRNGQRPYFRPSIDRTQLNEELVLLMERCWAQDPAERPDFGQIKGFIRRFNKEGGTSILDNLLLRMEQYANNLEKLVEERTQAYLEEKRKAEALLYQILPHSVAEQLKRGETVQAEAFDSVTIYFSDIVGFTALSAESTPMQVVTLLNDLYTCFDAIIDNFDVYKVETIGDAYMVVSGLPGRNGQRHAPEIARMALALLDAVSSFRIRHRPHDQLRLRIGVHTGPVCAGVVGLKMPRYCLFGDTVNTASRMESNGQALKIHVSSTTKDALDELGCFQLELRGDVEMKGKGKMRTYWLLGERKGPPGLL
Description: as §1

SRPK1 = target: T3, SRPK1 (Homo sapiens, UniProt Q96SB4);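 on 0.001 uM KAM: median log10 fold change of treatment over DMSO control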;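 on 0.01 uM KAM: median log10 fold change of treatment over DMSO control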;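 on 0.1 uM KAM: median log10 fold change of treatment over DMSO control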;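 on 1 uM KAM: median log10 fold change of treatment over DMSO control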;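 on 10 uM KAM: median log10 fold change of treatment over DMSO control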
T3 construct: endogenous in cells; host or cells: K562
T3 sequence (Q96SB4 whole entry): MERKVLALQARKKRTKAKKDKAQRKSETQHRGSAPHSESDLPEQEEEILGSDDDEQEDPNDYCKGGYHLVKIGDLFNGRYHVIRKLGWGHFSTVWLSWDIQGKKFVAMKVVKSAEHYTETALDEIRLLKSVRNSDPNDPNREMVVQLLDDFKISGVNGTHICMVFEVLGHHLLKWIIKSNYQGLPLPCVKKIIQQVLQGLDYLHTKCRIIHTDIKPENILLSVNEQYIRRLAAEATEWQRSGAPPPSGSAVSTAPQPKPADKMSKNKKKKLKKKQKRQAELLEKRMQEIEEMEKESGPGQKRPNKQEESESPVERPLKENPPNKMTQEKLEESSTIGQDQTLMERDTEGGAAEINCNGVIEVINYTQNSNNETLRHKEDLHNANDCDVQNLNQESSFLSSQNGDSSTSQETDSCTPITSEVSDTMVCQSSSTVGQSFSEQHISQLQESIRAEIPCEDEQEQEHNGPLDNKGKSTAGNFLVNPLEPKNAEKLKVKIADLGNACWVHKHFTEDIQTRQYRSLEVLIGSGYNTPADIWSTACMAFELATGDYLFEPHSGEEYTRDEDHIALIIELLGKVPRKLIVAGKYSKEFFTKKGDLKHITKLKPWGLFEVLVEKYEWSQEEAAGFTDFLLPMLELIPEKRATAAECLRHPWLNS
Description: as §1

RIOK1 = target: T4, RIOK1 (Homo sapiens, UniProt Q9BRS2);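 on 0.001 uM KAM: median log10 fold change of treatment over DMSO control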;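 on 0.01 uM KAM: median log10 fold change of treatment over DMSO control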;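 on 0.1 uM KAM: median log10 fold change of treatment over DMSO control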;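 on 1 uM KAM: median log10 fold change of treatment over DMSO control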;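 on 10 uM KAM: median log10 fold change of treatment over DMSO control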
T4 construct: endogenous in cells; host or cells: K562
T4 sequence (Q9BRS2 1-568): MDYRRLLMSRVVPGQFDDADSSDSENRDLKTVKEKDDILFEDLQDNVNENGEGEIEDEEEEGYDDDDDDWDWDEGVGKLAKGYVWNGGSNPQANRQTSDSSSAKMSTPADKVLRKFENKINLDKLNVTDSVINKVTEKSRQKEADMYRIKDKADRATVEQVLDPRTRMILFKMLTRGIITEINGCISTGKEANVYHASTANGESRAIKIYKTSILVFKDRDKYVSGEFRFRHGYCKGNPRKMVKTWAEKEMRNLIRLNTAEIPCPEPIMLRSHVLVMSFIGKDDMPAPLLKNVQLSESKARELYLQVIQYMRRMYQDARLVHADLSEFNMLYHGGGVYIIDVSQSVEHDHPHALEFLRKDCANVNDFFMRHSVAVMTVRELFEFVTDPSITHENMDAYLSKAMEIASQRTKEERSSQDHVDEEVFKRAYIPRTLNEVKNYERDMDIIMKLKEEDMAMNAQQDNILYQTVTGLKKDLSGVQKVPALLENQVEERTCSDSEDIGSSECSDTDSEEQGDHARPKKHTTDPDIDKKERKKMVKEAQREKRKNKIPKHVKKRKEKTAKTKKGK
Description: as §1

NME3 = target: T5, NME3 (Homo sapiens, UniProt Q13232);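 on 0.001 uM KAM: median log10 fold change of treatment over DMSO control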;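 on 0.01 uM KAM: median log10 fold change of treatment over DMSO control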;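 on 0.1 uM KAM: median log10 fold change of treatment over DMSO control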;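 on 1 uM KAM: median log10 fold change of treatment over DMSO control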;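 on 10 uM KAM: median log10 fold change of treatment over DMSO control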
T5 construct: endogenous in cells; host or cells: K562
T5 sequence (Q13232 1-169): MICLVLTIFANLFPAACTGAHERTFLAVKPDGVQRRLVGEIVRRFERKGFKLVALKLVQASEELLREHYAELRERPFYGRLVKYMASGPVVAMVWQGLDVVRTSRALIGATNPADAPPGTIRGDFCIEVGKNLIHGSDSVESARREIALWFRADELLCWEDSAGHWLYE
Description: as §1

[1] = KAM 0.001-10 uM, read-out: RB50 (the source's name)

SMILES: N#CCc1ccc(Nc2nc(NCCCN)cc(Nc3cc(C4CC4)[nH]n3)n2)cc1 [KAM]
- median Log10 fold change (HIPK2; 0.001 uM KAM): -0.003211
- median Log10 fold change (HIPK2; 0.01 uM KAM): 0.02239
- median Log10 fold change (HIPK2; 0.1 uM KAM): -0.07372
- median Log10 fold change (HIPK2; 1 uM KAM): -0.2033
- median Log10 fold change (HIPK2; 10 uM KAM): -0.3492
- pIC50 (HIPK2; read-out: RB50 (the source's name)): 5.37
- pIC50 (NPR2; [1]): < 5.00
- 0.001 uM KAM (NPR2; relative to 0 uM KAM = 0): -0.04196
- 0.01 uM KAM (NPR2; relative to 0 uM KAM = 0): -0.03427
- 0.1 uM KAM (NPR2; relative to 0 uM KAM = 0): -0.06644
- 1 uM KAM (NPR2; relative to 0 uM KAM = 0): -0.002813
- 10 uM KAM (NPR2; relative to 0 uM KAM = 0): -0.07947
- pIC50 (SRPK1; [1]): < 5.00
- 0.001 uM KAM (SRPK1; relative to 0 uM KAM = 0): -0.01052
- 0.01 uM KAM (SRPK1; relative to 0 uM KAM = 0): -0.04054
- 0.1 uM KAM (SRPK1; relative to 0 uM KAM = 0): 0.02779
- 1 uM KAM (SRPK1; relative to 0 uM KAM = 0): -0.002878
- 10 uM KAM (SRPK1; relative to 0 uM KAM = 0): -0.01305
- pIC50 (RIOK1; [1]): < 5.00
- 0.001 uM KAM (RIOK1; relative to 0 uM KAM = 0): -0.005877
- 0.01 uM KAM (RIOK1; relative to 0 uM KAM = 0): -0.06085
- 0.1 uM KAM (RIOK1; relative to 0 uM KAM = 0): -0.03934
- 1 uM KAM (RIOK1; relative to 0 uM KAM = 0): 0.04921
- 10 uM KAM (RIOK1; relative to 0 uM KAM = 0): -0.001737
- pIC50 (NME3; [1]): < 5.00
- 0.001 uM KAM (NME3; relative to 0 uM KAM = 0): -0.01588
- 0.01 uM KAM (NME3; relative to 0 uM KAM = 0): -0.01222
- 0.1 uM KAM (NME3; relative to 0 uM KAM = 0): -0.05319
- 1 uM KAM (NME3; relative to 0 uM KAM = 0): 0.05076
- 10 uM KAM (NME3; relative to 0 uM KAM = 0): 0.01706
